According to PubChem BioAssay (NCI):
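Abbreviation: GI50, concentration required for 50% inhibition of growth. TGI: total growth inhibition.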

Assays:
Test in all cases: NCI anticancer screen, dose series, 384-well format
[1] = system: NCI-H226 lung
[2] = system: TK-10 renal
[3] = system: MDA-MB-468 breast
[4] = system: MDA-MB-231 breast
[5] = system: BT-549 breast
[6] = system: SK-OV-3 ovarian
[7] = system: HOP-62 NSCLC
[8] = system: CAKI-1 renal
[9] = system: UACC-62 melanoma
[10] = system: MCF7 breast
[11] = system: T-47D breast
[12] = system: NCI-H322M lung
[13] = system: MOLT-4 leukemia
[14] = system: EKVX NSCLC
[15] = system: ACHN renal
[16] = system: HCT-15 colon
[17] = system: A549 NSCLC
[18] = system: K-562 leukemia
[19] = system: SW-620 colon
[20] = system: NCI/ADR-RES ovarian
[21] = system: RXF 393 renal
[22] = system: IGROV1 ovarian
[23] = system: MDA-MB-435 melanoma
[24] = system: KM12 colon
[25] = system: HS 578T breast
[26] = system: OVCAR-8 ovarian
[27] = system: SF-268 CNS
[28] = system: M14 melanoma

SMILES: CC(C)Cn1cnc2c(N)nc3ccccc3c21
- TGI [1]: > 100 µM
- GI50 [2]: > 100 µM
- TGI [2]: > 100 µM
- GI50 [3]: > 100 µM
- TGI [3]: > 100 µM
- GI50 [4]: > 100 µM
- TGI [4]: > 100 µM
- GI50 [5]: > 100 µM
- TGI [5]: > 100 µM
- GI50 [6]: > 100 µM
- TGI [6]: > 100 µM
- GI50 [7]: > 100 µM
- TGI [7]: > 100 µM
- GI50 [8]: > 100 µM
- TGI [8]: > 100 µM
- GI50 [9]: > 100 µM
- TGI [9]: > 100 µM
- GI50 [10]: > 100 µM
- TGI [10]: > 100 µM
- GI50 [11]: > 100 µM
- TGI [11]: > 100 µM
- GI50 [12]: > 100 µM
- TGI [12]: > 100 µM
- GI50 [13]: > 100 µM
- TGI [13]: > 100 µM
- GI50 [14]: 67.9 µM
- TGI [14]: > 100 µM
- GI50 [15]: > 100 µM
- TGI [15]: > 100 µM
- GI50 [16]: > 100 µM
- TGI [16]: > 100 µM
- GI50 [17]: > 100 µM
- TGI [17]: > 100 µM
- GI50 [18]: > 100 µM
- TGI [18]: > 100 µM
- GI50 [19]: > 100 µM
- TGI [19]: > 100 µM
- GI50 [20]: > 100 µM
- TGI [20]: > 100 µM
- GI50 [21]: > 100 µM
- TGI [21]: > 100 µM
- GI50 [22]: > 100 µM
- TGI [22]: > 100 µM
- GI50 [23]: > 100 µM
- TGI [23]: > 100 µM
- GI50 [24]: > 100 µM
- TGI [24]: > 100 µM
- GI50 [25]: > 100 µM
- TGI [25]: > 100 µM
- GI50 [26]: > 100 µM
- TGI [26]: > 100 µM
- GI50 [27]: > 100 µM
- TGI [27]: > 100 µM
- GI50 [28]: > 100 µM
- TGI [28]: > 100 µM
